Non-standard residues stand in square brackets, D forms with d. Residues, ends and D or L forms follow the SMILES beside them. *: point of attachment. sY = N[C@@H](Cc1ccc(OS(=O)(=O)O)cc1)C(=O)O; Nle = CCCC[C@H](N)C(=O)O; Boc = CC(C)(C)OC(=O)*
What was measured:
[1] = target: T1, Cholecystokinin receptor (Rattus norvegicus, UniProt P30551+P30553); experiment: Ability of compound to Inhibit the binding of [125I]BH-CCK-8 to Cholecystokinin receptor in isolated rat pancreatic acini; assay type: protein assay
T1 sequence (P30551 whole entry): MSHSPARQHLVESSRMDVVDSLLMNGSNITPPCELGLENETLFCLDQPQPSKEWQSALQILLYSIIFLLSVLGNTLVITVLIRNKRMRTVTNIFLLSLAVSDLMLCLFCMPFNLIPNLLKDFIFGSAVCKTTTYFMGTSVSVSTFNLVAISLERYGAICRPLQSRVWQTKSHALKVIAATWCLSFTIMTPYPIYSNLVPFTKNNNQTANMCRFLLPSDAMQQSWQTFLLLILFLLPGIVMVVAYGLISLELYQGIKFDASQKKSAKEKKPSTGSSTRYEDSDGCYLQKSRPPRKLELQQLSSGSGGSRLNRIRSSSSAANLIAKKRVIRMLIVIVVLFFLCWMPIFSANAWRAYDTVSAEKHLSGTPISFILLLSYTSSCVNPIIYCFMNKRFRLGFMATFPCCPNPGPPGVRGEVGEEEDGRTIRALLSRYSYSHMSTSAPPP
T1 sequence (P30553 whole entry): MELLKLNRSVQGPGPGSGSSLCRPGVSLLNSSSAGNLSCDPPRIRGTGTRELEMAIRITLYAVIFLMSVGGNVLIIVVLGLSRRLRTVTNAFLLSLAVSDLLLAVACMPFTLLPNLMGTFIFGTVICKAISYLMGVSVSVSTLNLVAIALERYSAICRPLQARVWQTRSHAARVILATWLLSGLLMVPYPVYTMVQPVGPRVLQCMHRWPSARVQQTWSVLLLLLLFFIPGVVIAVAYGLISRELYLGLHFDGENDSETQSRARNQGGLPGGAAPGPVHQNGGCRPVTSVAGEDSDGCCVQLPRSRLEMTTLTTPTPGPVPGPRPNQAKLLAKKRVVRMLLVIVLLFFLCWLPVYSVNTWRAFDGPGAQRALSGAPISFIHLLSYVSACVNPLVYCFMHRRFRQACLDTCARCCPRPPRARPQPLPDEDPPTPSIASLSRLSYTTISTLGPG

[2] = Ability of compound to Inhibit the binding of [125I]BH-CCK-8 to Cholecystokinin receptor in isolated guinea pig brain membranes
[3] = species on record: Rattus norvegicus; experiment: Ability of compound to stimulate in vitro amylase release from rat pancreatic acini; assay type: functional

Row | Structure (SMILES) | IC50 [1] [nM] | IC50 [2] [nM] | EC50 [3] [nM]
1 | CCCC[C@H](NC(=O)[C@H](Cc1ccc(OS(=O)(=O)O)cc1)NC(=O)OC(C)(C)C)C(=O)NCNC(=O)[C@H](Cc1c[nH]c2ccccc12)NC(=O)[C@H](CCCC)NC(=O)[C@H](CC(=O)O)NC(=O)[C@@H](Cc1ccccc1)C(N)=O | 20 | 1000 | 30
2 | CCCC[C@H](NC(=O)[C@H](Cc1ccc(OS(=O)(=O)O)cc1)NC(=O)C(CC(=O)O)NC(=O)OC(C)(C)C)C(=O)NCC(=O)N[C@H](Cc1c[nH]c2ccccc12)C(=O)N[C@@H](CCCC)C(=O)N[C@H](CC(=O)O)NC(=O)CCc1ccccc1 (some centres not stated) | 100 | 40 | 130
3 | CCCC[C@H](NC(=O)[C@H](Cc1ccc(OS(=O)(=O)O)cc1)NC(=O)OC(C)(C)C)C(=O)NCC(=O)N[C@H](Cc1c[nH]c2ccccc12)C(=O)N[C@@H](CCCC)C(=O)N[C@@H](CC(=O)O)C(=O)N[C@@H](Cc1ccccc1)NC=O | 4000 | 100 | 1700
4 | CCCC[C@H](NC(=O)[C@H](Cc1ccc(OS(=O)(=O)O)cc1)NC(=O)C(CC(=O)O)NC(=O)OC(C)(C)C)C(=O)NCC(=O)N[C@H](Cc1c[nH]c2ccccc12)C(=O)N[C@@H](CCCC)C(=O)N[C@H](CC(=O)O)NC(=O)[C@@H](Cc1ccccc1)C(N)=O (some centres not stated) | 100 | 10 | 0.7
5 | CCCC[C@H](NC(=O)[C@H](Cc1ccc(OS(=O)(=O)O)cc1)NC(=O)OC(C)(C)C)C(=O)NCNC(=O)[C@H](Cc1c[nH]c2ccccc12)NC(=O)[C@H](CCCC)NC(=O)[C@H](CC(=O)O)NC(=O)CCc1ccccc1 | 40 | 100 | 17

Results, then the molecule that gave them:

Row | IC50 [1] [nM] | IC50 [2] [nM] | EC50 [3] [nM] | Structure (SMILES)
6 | 500 | 30 | 30 | CCCC[C@H](NC(=O)[C@H](Cc1ccc(OS(=O)(=O)O)cc1)NC(=O)OC(C)(C)C)C(=O)NCC(=O)N[C@@H](Cc1c[nH]c2ccccc12)C(=O)N[C@@H](CCCC)C(=O)N[C@@H](CC(=O)O)C(=O)N[C@@H](Cc1ccccc1)NC=O
7 | 500 | 2 | 6 | CCCC[C@@H](NC(=O)CC(=O)N[C@H](Cc1c[nH]c2ccccc12)C(=O)N[C@@H](CCCC)C(=O)N[C@H](CC(=O)O)C(=O)N[C@@H](Cc1ccccc1)C(N)=O)NC(=O)[C@H](Cc1ccc(OS(=O)(=O)O)cc1)NC(=O)C(CC(=O)O)NC(=O)OC(C)(C)C (some centres not stated)
8 | – | – | 0.05 | CCCC[C@H](NC(=O)[C@H](Cc1ccc(OS(=O)(=O)O)cc1)NC(=O)OC(C)(C)C)C(=O)NCC(=O)N[C@@H](Cc1c[nH]c2ccccc12)C(=O)N[C@@H](CCCC)C(=O)N[C@@H](CC(=O)O)C(=O)N[C@@H](Cc1ccccc1)C(N)=O (Boc-[sY][Nle]GW[Nle]DF-NH2)

From ChEMBL document CHEMBL1124355, “Synthesis and biological activity of some partially modified retro-inverso analogues of cholecystokinin” (J Med Chem, 1989)
